Experimental data as given in PubChem BioAssay AID1963871 (Molecular Pharmacology Branch, DTP, NCI, 2024).

Test system: KRAS-mutant PDC multicell tumor spheroid viability
Assay: Anticancer human tumor 521955-158-R2-J5-PDC patient-derived pancreatic carcinoma cell line growth inhibition [KRAS2]
Conditions: for viability, T/C: stronger effect = lower value
How it was run: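 KRAS-mutant tumor cells were grown as spheroids with HUVEC endothelial cells and human MSCs as stroma. Targeted agents were tested alone and with KRAS pathway inhibitors. Doses started at or near clinical Cmax, or 10 microM, descending half-log.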

[1] = curve of first compound, second compound 0.1 µM
[2] = curve of first compound, second compound 0.316 µM
[3] = curve of first compound, second compound 1 µM
[4] = curve of first compound, second compound 3.16 µM
[5] = second compound 0.1 µM, first compound 0.0316 µM
[6] = second compound 0.1 µM, first compound 0.1 µM
[7] = second compound 0.1 µM, first compound 0.316 µM
[8] = second compound 0.1 µM, first compound 1 µM
[9] = second compound 0.1 µM, first compound 3.16 µM
[10] = second compound 0.1 µM, first compound 10 µM
[11] = second compound 0.316 µM, first compound 0.0316 µM
[12] = second compound 0.316 µM, first compound 0.1 µM
[13] = second compound 0.316 µM, first compound 0.316 µM
[14] = second compound 0.316 µM, first compound 1 µM
[15] = second compound 0.316 µM, first compound 3.16 µM
[16] = second compound 0.316 µM, first compound 10 µM
[17] = second compound 1 µM, first compound 0.0316 µM
[18] = second compound 1 µM, first compound 0.1 µM
[19] = second compound 1 µM, first compound 0.316 µM
[20] = second compound 1 µM, first compound 1 µM
[21] = second compound 1 µM, first compound 3.16 µM
[22] = second compound 1 µM, first compound 10 µM
[23] = second compound 3.16 µM, first compound 0.0316 µM
[24] = second compound 3.16 µM, first compound 0.1 µM
[25] = second compound 3.16 µM, first compound 0.316 µM
[26] = second compound 3.16 µM, first compound 1 µM
[27] = second compound 3.16 µM, first compound 3.16 µM
[28] = second compound 3.16 µM, first compound 10 µM
[29] = curve of first compound, second compound 10 µM
[30] = second compound 0.1 µM, first compound 0.000316 µM
[31] = second compound 0.1 µM, first compound 0.001 µM
[32] = second compound 0.1 µM, first compound 0.00316 µM
[33] = second compound 0.1 µM, first compound 0.01 µM
[34] = second compound 0.316 µM, first compound 0.000316 µM
[35] = second compound 0.316 µM, first compound 0.001 µM
[36] = second compound 0.316 µM, first compound 0.00316 µM
[37] = second compound 0.316 µM, first compound 0.01 µM
[38] = second compound 1 µM, first compound 0.000316 µM
[39] = second compound 1 µM, first compound 0.001 µM
[40] = second compound 1 µM, first compound 0.00316 µM
[41] = second compound 1 µM, first compound 0.01 µM
[42] = second compound 3.16 µM, first compound 0.000316 µM
[43] = second compound 3.16 µM, first compound 0.00316 µM
[44] = second compound 3.16 µM, first compound 0.01 µM
[45] = second compound 10 µM, first compound 0.000316 µM
[46] = second compound 10 µM, first compound 0.001 µM
[47] = second compound 10 µM, first compound 0.00316 µM
[48] = second compound 10 µM, first compound 0.01 µM
[49] = second compound 10 µM, first compound 0.0316 µM
[50] = second compound 10 µM, first compound 0.1 µM
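Further: viability read after seven days of drug exposure.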

O=C(c1cc(Cc2n[nH]c(=O)c3ccccc23)ccc1F)N1CCN(C(=O)C2CC2)CC1
viability, T/C (compound 0.0316 µM): 99% [middle of 5 runs] | viability, T/C (compound 0.1 µM): 95.1% [middle of 5 runs] | viability, T/C (compound 0.316 µM): 93.8% [middle of 5 runs] | viability, T/C (compound 1 µM): 94.8% [middle of 5 runs] | viability, T/C (compound 3.16 µM): 89.3% [middle of 5 runs] | viability, T/C (compound 10 µM): 61% [middle of 5 runs] | IC50 (curve of compound): > 10000 nM

COC(=O)c1ccc2c(C(=Nc3ccc(N(C)C(=O)CN4CCN(C)CC4)cc3)c3ccccc3)c(O)[nH]c2c1 + C=CC(=O)N1CCN(c2nc(OCC3CCCN3C)nc3c2CCN(c2cccc4cccc(C)c24)C3)CC1CC#N
IC50 (curve of first compound, second compound 0.0316 µM): 1160 nM | IC50 [1]: 864 nM | IC50 [2]: 280 nM | IC50 [3]: < 31.6 nM | IC50 [4]: < 31.6 nM | viability, T/C (second compound 0.0316 µM, first compound 0.0316 µM): 78% | viability, T/C (second compound 0.0316 µM, first compound 0.1 µM): 67.5% | viability, T/C (second compound 0.0316 µM, first compound 0.316 µM): 75.1% | viability, T/C (second compound 0.0316 µM, first compound 1 µM): 55.9% | viability, T/C (second compound 0.0316 µM, first compound 3.16 µM): 9.24% | viability, T/C (second compound 0.0316 µM, first compound 10 µM): 0.33% | viability, T/C [5]: 64.2% | viability, T/C [6]: 69.8% | viability, T/C [7]: 65.2% | viability, T/C [8]: 47.7% | viability, T/C [9]: 8.93% | viability, T/C [10]: 0.33% | viability, T/C [11]: 72.1% | viability, T/C [12]: 69.5% | viability, T/C [13]: 43.7% | viability, T/C [14]: 28.6% | viability, T/C [15]: 2.62% | viability, T/C [16]: 1.9% | viability, T/C [17]: 49.4% | viability, T/C [18]: 50.6% | viability, T/C [19]: 37.3% | viability, T/C [20]: 26.4% | viability, T/C [21]: 1.74% | viability, T/C [22]: 0.25% | viability, T/C [23]: 1.66% | viability, T/C [24]: 0.72% | viability, T/C [25]: 0.77% | viability, T/C [26]: 0.34% | viability, T/C [27]: 0.55% | viability, T/C [28]: 0.44%

CC1COCCN1c1cc(-c2ccnn2C)c2ccnc(-c3ccn[nH]3)c2n1 (configuration not stated)
viability, T/C (compound 0.01 µM): 97.7% [middle of 5 runs] | viability, T/C (compound 0.1 µM): 12.3% [middle of 5 runs] | viability, T/C (compound 0.316 µM): 13.6% [middle of 5 runs] | viability, T/C (compound 1 µM): 21.9% [middle of 5 runs] | viability, T/C (compound 3.16 µM): 25.1% [middle of 5 runs] | IC50 (curve of compound): 34.4 nM [middle of 5 runs]

Cn1ncnc1[C@H]1c2n[nH]c(=O)c3cc(F)cc(c23)N[C@@H]1c1ccc(F)cc1 + C=CC(=O)N1CCN(c2nc(=O)n(-c3c(C)ccnc3C(C)C)c3nc(-c4c(O)cccc4F)c(F)cc23)C(C)C1
IC50 [1]: > 100 nM | IC50 [2]: > 100 nM | IC50 [3]: > 100 nM | IC50 [4]: > 100 nM | IC50 [29]: > 100 nM | viability, T/C [30]: 104% | viability, T/C [31]: 106% | viability, T/C [32]: 89.6% | viability, T/C [33]: 96.3% | viability, T/C [5]: 87.2% | viability, T/C [6]: 79.3% | viability, T/C [34]: 109% | viability, T/C [35]: 108% | viability, T/C [36]: 103% | viability, T/C [37]: 80.6% | viability, T/C [11]: 82.6% | viability, T/C [12]: 86.3% | viability, T/C [38]: 103% | viability, T/C [39]: 107% | viability, T/C [40]: 96.6% | viability, T/C [41]: 85.9% | viability, T/C [17]: 83.3% | viability, T/C [18]: 68.2% | viability, T/C [42]: 95.5% | viability, T/C (second compound 3.16 µM, first compound 0.001 µM): 89.8% | viability, T/C [43]: 97.7% | viability, T/C [44]: 75.2% | viability, T/C [23]: 66.4% | viability, T/C [24]: 61.9% | viability, T/C [45]: 63.9% | viability, T/C [46]: 67.8% | viability, T/C [47]: 60.9% | viability, T/C [48]: 59.6% | viability, T/C [49]: 59.8% | viability, T/C [50]: 57.7%

COc1cc2nc(C)nc(NC(C)c3cc(N)cc(C(F)(F)F)c3)c2cc1OC1CCOC1 (configuration not stated)
viability, T/C (compound 0.1 µM): 87.8% [middle of 17 runs] | IC50 (compound alone, run of 08/26/2021): > 10000 nM | IC50 (compound alone, run of 09/02/2021): > 10000 nM

CC(=O)Nc1cccc(-n2c(=O)n(C3CC3)c(=O)c3c(Nc4ccc(I)cc4F)n(C)c(=O)c(C)c32)c1 + C=CC(=O)N1CCN(c2nc(=O)n(-c3c(C)ccnc3C(C)C)c3nc(-c4c(O)cccc4F)c(F)cc23)C(C)C1
IC50 [1]: 0.493 nM | IC50 [2]: 0.426 nM | IC50 [3]: 1 nM | IC50 [4]: 0.444 nM | IC50 [29]: < 0.1 nM | viability, T/C (second compound 0.1 µM, first compound 0.0001 µM): 84.6% | viability, T/C [30]: 52.6% | viability, T/C [31]: 41.3% | viability, T/C [32]: 30.1% | viability, T/C [33]: 25.8% | viability, T/C [5]: 15.7% | viability, T/C (second compound 0.316 µM, first compound 0.0001 µM): 89.7% | viability, T/C [34]: 51.9% | viability, T/C [35]: 38.2% | viability, T/C [36]: 31.4% | viability, T/C [37]: 28.9% | viability, T/C [11]: 19.6% | viability, T/C (second compound 1 µM, first compound 0.0001 µM): 87.9% | viability, T/C [38]: 61% | viability, T/C [39]: 54.7% | viability, T/C [40]: 36.6% | viability, T/C [41]: 32.9% | viability, T/C [17]: 24.5% | viability, T/C (second compound 3.16 µM, first compound 0.0001 µM): 63.5% | viability, T/C [42]: 51.7% | viability, T/C [43]: 33.5% | viability, T/C [44]: 29.5% | viability, T/C [23]: 18.5% | viability, T/C (second compound 10 µM, first compound 0.0001 µM): 50.6% | viability, T/C [45]: 37.1% | viability, T/C [46]: 28.8% | viability, T/C [47]: 32.4% | viability, T/C [48]: 25% | viability, T/C [49]: 17.8%

CCNC(=O)CC1N=C(c2ccc(Cl)cc2)c2cc(OC)ccc2-n2c(C)nnc21 (configuration not stated)
viability, T/C (compound 0.0316 µM): 98.9% [middle of 5 runs] | viability, T/C (compound 0.1 µM): 92.1% [middle of 5 runs] | viability, T/C (compound 0.316 µM): 63% [middle of 5 runs] | viability, T/C (compound 1 µM): 45% [middle of 5 runs] | viability, T/C (compound 3.16 µM): 37.6% [middle of 5 runs] | viability, T/C (compound 10 µM): 34.2% [middle of 5 runs] | IC50 (curve of compound): 692 nM [middle of 5 runs]

Cn1nccc1Nc1nccc(-c2cc3c(s2)C(C)(C)N(CCN2CCOCC2)C3=O)n1 + CNCc1ccccc1-c1csc(C(C)Nc2nc(C)nc3cc(OC)c(OC)cc23)c1
IC50 [1]: 1050 nM | IC50 [2]: 784 nM | IC50 [3]: 913 nM | IC50 [4]: < 31.6 nM | IC50 [29]: < 31.6 nM | viability, T/C [5]: 99.7% | viability, T/C [6]: 84.2% | viability, T/C [7]: 60.7% | viability, T/C [8]: 54.2% | viability, T/C [9]: 36.5% | viability, T/C [10]: 18% | viability, T/C [11]: 98.3% | viability, T/C [12]: 81.4% | viability, T/C [13]: 60.9% | viability, T/C [14]: 49.6% | viability, T/C [15]: 29.4% | viability, T/C [16]: 18.3% | viability, T/C [17]: 103% | viability, T/C [18]: 100% | viability, T/C [19]: 71.9% | viability, T/C [20]: 47.7% | viability, T/C [21]: 22.3% | viability, T/C [22]: 0.54% | viability, T/C [23]: 0.21% | viability, T/C [24]: 0.22% | viability, T/C [25]: 0.19% | viability, T/C [26]: 0.51% | viability, T/C [27]: 0.08% | viability, T/C [28]: 0.36% | viability, T/C [49]: 0.11% | viability, T/C [50]: 0.15% | viability, T/C (second compound 10 µM, first compound 0.316 µM): 0.14% | viability, T/C (second compound 10 µM, first compound 1 µM): 0.14% | viability, T/C (second compound 10 µM, first compound 3.16 µM): 0.19% | viability, T/C (second compound 10 µM, first compound 10 µM): 0.2%
